Data reported in patent US4124598A, “Psoralens” (Hoffmann-La Roche Inc., priority 1976, dated 1978).
Counter-ions that a name gives are not always drawn. Like-named read-outs stand apart in the source and are kept apart here.

Assays:
[1] = Hydrolysis in aqueous solution; format: physicochemical
[2] = tested on: vesicular stomatitis virus; format: cell-based, Vesicular stomatitis virus Indiana strain
[3] = biological target: Drosophila melanogaster ribosomal RNA; assay: Equilibrium dialysis, non-covalent binding to RNA
Method: (§1) In order to establish the dissociation constants from DNA and RNA, the non-covalent binding was ascertained. Non-covalent binding determines the presence of the psoralen within the nucleic acid helix. Its presence is determined in the absence of any radiant energy. As noted before, radiant energy is necessary to activate the psoralen covalent binding reaction with nucleic acid base pairs.
(§2) To determine the non-covalent binding, Calf thymus DNA (Sigma Type I) was dissolved in a 0.01 M Tris 0.001 M EDTA pH 8.5 buffer at a concentration of 25 ug/ml. A quantity of this DNA solution was placed in a dialysis bag (pretreated by boiling in NaHCO3), and the various tritiated derivatives were added inside the bag in half the cases and outside the bag in the other half. The molar ratio of psoralen molecules to base pairs was approximately 1:25. The bags were placed in vials filled with 18 ml of buffer and put on a shaker for 48-60 hours. After this period, radioactivity was determined both inside and outside the bags and the optical density of the DNA solution measured. From this information, and the specific activity of each derivative, the amount of drug non-covalently bound to the DNA was determined. Binding of the derivatives to Drosophila melanogaster ribosomal RNA was measured in exactly the same manner.
(§3) The units of the dissociation constants are moles/liter. Solubilities and molar extinction coefficients (ε) were obtained in pure water, the equilibrium constants (KD) in 0.01 M Tris.

[4] = Molar extinction coefficient in pure water; format: physicochemical
Source text: as §3

[5] = tested on: RNA (Drosophila melanogaster ribosomal RNA); assay: High intensity photoaddition (covalent binding) to RNA; conditions: 25 μg/ml RNA, psoralen:base pair 1:3
Method: (§4) The covalent binding of the psoralens to DNA and RNA was studied. To achieve covalent binding, it is necessary to supply radiant energy (light) to the binding sites. These studies were carried out as follows:
(§5) The DNA and RNA used in the covalent binding studies have been described previously. Samples of each nucleic acid were prepared at a concentration of 25 ug/ml in 0.01 m Tris 0.001 M EDTA buffer. The radioactive-psoralen derivatives were added in a ratio of one psoralen for every three base pairs. The irradiation was carried out in one of the two following devices.
(§6) The low intensity irradiations were performed with a modified slide projector which was fitted with a 400 watt General Electric mercury vapor lamp (H 400 A 33-1/T16). The image of the arc was focused on the same cell, jacketed by a cobaltous nitrate solution which was also used for the high intensity irradiations. The light intensity delivered to the sample in this device was 4 to 6 mw/cm^2. The high intensity irradiations were carried out in a device containing two of the sam 400 watt General Electric mercury vapor lamps which were mounted on either side of a double walled sample chamber at a distance between centers of 4.0 cm. The chamber was cooled to 10° C. by continuous circulation of a temperature regulated solution of cobaltous nitrate (40% w/w). The cobalt solution served as an ultraviolet filter which allowed a maximum transmittance of 365 nm light and a window from approximately 340-380 nm. The intensity of the light at the surface of the inner sample chamber was approximately 100 mw/cm^2. The nucleic acid-psoralen mixture was placed in the inner chamber where it was continuously stirred throughout the irradiation. Aliquots of each solution (derivative plus nucleic acid) were taken at 20, 40 and 60 minutes. Each aliquot was then extracted twice with chloroform/iso-amyl alcohol (24:1) to remove unreacted psoralen followed by exhaustive dialysis against 0.01 M Tris, 0.001 M EDTA buffer. The successful extraction of unbound psoralen by the chloroform-isoamyl alcohol required the aqueous phase to be at least 0.15 M in NaCl. Finally, the optical density of the nucleic-acid psoralen mixture was taken and its radioactivity determined, thus giving the amount of derivative covalently bound to the DNA or RNA. Taking samples, at spaced time intervals also permitted an assessment of the kinetics of the covalent binding.

DNA (calf thymus) [6] = assay: High intensity photoaddition (covalent binding) to DNA; conditions: 25 μg/ml DNA, psoralen:base pair 1:3
Method: as §4, §5, §6

DNA = assay: Reactivity with DNA (general statement); format: binding, calf
Method: as §4, §5
as §6, with “Each aliquot was then extracted twice with chloroform/iso-amyl alcohol (24:1) to remove unreacted psoralen followed by exhaustive dialysis against 0.01 M Tris, 0.001 M EDTA buffer. The successful extraction of unbound psoralen by the chloroform-isoamyl alcohol required the aqueous phase to be at least 0.15 M in NaCl.” left out, “Taking samples, at spaced time intervals also permitted an assessment of the kinetics of the covalent binding.” left out

Calf thymus DNA [7] = assay: Equilibrium dialysis, non-covalent binding to DNA
Method: as §1, §2, §3

Solubility in pure water = format: physicochemical; conditions: for solubility: pure water
Source text: In order to study solubilities and dissociation constants, it is most convenient to prepare tritiated derivatives of the psoralen compounds. Thus, well-known radiation counting methods may be utilized to monitor the presence of the psoralens in solutions, or in nucleic acids.
as §3

DNA (calf thymus) [8] = assay: Low intensity photoaddition (covalent binding) to DNA; conditions: for A (footnote 1, shown as drawing 9) / B = percent of added psoralen covalently bound: 25 μg/ml DNA, psoralen:base pair 1:3
Method: as §4, §5
as §6, with “Aliquots of each solution (derivative plus nucleic acid) were taken at 20, 40 and 60 minutes.” left out

[9] = calculated from literature results, cited from earlier work
Calf thymus DNA [10] = conditions: calculated from literature results, cited from earlier work
[11] = biological target: Drosophila melanogaster ribosomal RNA; conditions: calculated from literature results, cited from earlier work
[12] = 0.01 M Tris, non-covalent binding
[13] = saturated solution, occupied/unoccupied binding sites

Cc1oc2c(C)c3oc(=O)cc(C)c3cc2c1CCl [4'-chloromethyl-4,5',8-trimethyl psoralen]
hydrolysis of the chloromethyl substituent in aqueous solution [1]: readily hydrolysed in aqueous solution

Cc1oc2c(C)c3oc(=O)cc(C)c3cc2c1CN [4'-aminomethyl-4,5',8-trimethyl psoralen hydrochloride]
inactivation of vesicular stomatitis virus, comparison in words ([2]; FIG. 2, 1-3 μg/ml, long wavelength UV): undisputed superiority
effectiveness in inactivation of vesicular stomatitis virus vs 4,5',8-trimethyl psoralen ([2]; high dose rates, e.g., 30 μg/ml): nearly one thousand times more effective
Kd [3, 12]: 20 µM
(PS)/(S) for RNA in Saturated Solution [3, 13]: 1700
Extinction coefficient ε, 250 nm [4]: 25000 L/mol/cm
A (footnote 1, shown as drawing 11) ([5]; 20 min irradiation): 5.1
B = percent of added psoralen covalently bound ([5]; 20 min irradiation): 59.4%
A (footnote 1, shown as drawing 11) ([5]; 40 min irradiation): 5.3
B = percent of added psoralen covalently bound ([5]; 40 min irradiation): 57.2%
A (footnote 1, shown as drawing 11) ([5]; 60 min irradiation): 5.3
B = percent of added psoralen covalently bound ([5]; 60 min irradiation): 57.3%
A (footnote 1, shown as drawing 10) (DNA (calf thymus) [6]; 20 min irradiation): 4.7
B = percent of added psoralen covalently bound (DNA (calf thymus) [6]; 20 min irradiation): 63.8%
A (footnote 1, shown as drawing 10) (DNA (calf thymus) [6]; 40 min irradiation): 4.8
B = percent of added psoralen covalently bound (DNA (calf thymus) [6]; 40 min irradiation): 62.5%
A (footnote 1, shown as drawing 10) (DNA (calf thymus) [6]; 60 min irradiation): 4.8
B = percent of added psoralen covalently bound (DNA (calf thymus) [6]; 60 min irradiation): 62.5%
reactivity with DNA (DNA): excellent reactivity with DNA
Kd (Calf thymus DNA [7]; [12]): 6.6 µM
times more effective at reaching state of site saturation (Calf thymus DNA [7]; calculated, DNA): 10^4 times
(PS)/(S) for DNA in Saturated Solution (Calf thymus DNA [7]; [13]): 5000
times more strongly binding than 4'-hydroxymethyl trioxsalen (Calf thymus DNA [7]; vs 4'-hydroxymethyl trioxsalen): about 100 times
times more strongly binding to DNA than trioxsalen (Calf thymus DNA [7]; vs trioxsalen): about 8 times
solubility (Solubility in pure water): 10000 µg/mL
solubility (Solubility in pure water; molar): 34 mM
times more soluble than 4'-hydroxymethyl trioxsalen (Solubility in pure water; vs 4'-hydroxymethyl trioxsalen): 150 times
rate of reaction with DNA / initial rate of photochemical binding (DNA (calf thymus) [8]): reacts with DNA much faster than trioxsalen
A (footnote 1, shown as drawing 9) (DNA (calf thymus) [8]; 5 min irradiation): 15.0
B = percent of added psoralen covalently bound (DNA (calf thymus) [8]; 5 min irradiation): 19.3%
A (footnote 1, shown as drawing 9) (DNA (calf thymus) [8]; 10 min irradiation): 10.5
B = percent of added psoralen covalently bound (DNA (calf thymus) [8]; 10 min irradiation): 27.4%
A (footnote 1, shown as drawing 9) (DNA (calf thymus) [8]; 30 min irradiation): 6.9
B = percent of added psoralen covalently bound (DNA (calf thymus) [8]; 30 min irradiation): 41.8%
A (footnote 1, shown as drawing 9) (DNA (calf thymus) [8]; 60 min irradiation): 5.9
B = percent of added psoralen covalently bound (DNA (calf thymus) [8]; 60 min irradiation): 48.7%
A (footnote 1, shown as drawing 9) (DNA (calf thymus) [8]; 90 min irradiation): 5.5
B = percent of added psoralen covalently bound (DNA (calf thymus) [8]; 90 min irradiation): 52.4%
moles of psoralen bound per mole of base pairs (DNA (calf thymus) [8]; 90 minutes irradiation): 0.18 moles per mole of base pairs
molecules in the solution covalently bound to DNA (DNA (calf thymus) [8]; after 90 minutes of irradiation): over half

COc1c2occc2cc2ccc(=O)oc12 [8-methoxypsoralen, 8-methoxy psoralen]
Extinction coefficient ε, 250 nm [4]: 19000 L/mol/cm
solubility [9]: 36 µg/mL
solubility ([9]; molar): 0.17 mM
Kd (Calf thymus DNA [10]): 2500 µM
(PS)/(S) for DNA in Saturated Solution (Calf thymus DNA [10]; saturated solution): 0.068
Kd [11]: 17000 µM
(PS)/(S) for RNA in Saturated Solution ([11]; saturated solution): 0.010
one psoralen per n base pairs at equilibrium (best achievable) (Calf thymus DNA [7]; saturated solution): ~20 base pairs
